GI50 data for 20 compounds are collected here from patent publication US20240246948A1, “BENZAMIDE DERIVATIVE, METHOD FOR PREPARING SAME, AND PHARMACEUTICAL COMPOSITION FOR PREVENTION OR TREATMENT OF CANCER CONTAINING SAME AS ACTIVE INGREDIENT” (HK INNO.N CORPORATION, priority 2021, published 2024).

Assay [1] addresses Ba/F3 EGFR L858R/T790M (LT) (Homo sapiens, UniProt P00533, T790M/L858R, cells depend on it). Kind of assay: Cell growth inhibitory ability in Ba/F3 cells overexpressing EGFR L858R/T790M (MTS, CellTiter 96 AQueous). Type of assay: cell-based. Conditions: 72 hours, MTS absorbance at 490 nm, read-out: Ba/F3 EGFR double mutant L858R/T790M, IC50. The procedure:
(§1) In order to confirm that the compound represented by formula 1 provided in one aspect of the present invention acts as an allosteric inhibitor against WT and mutant of EGFR, the cell growth inhibitory effect was evaluated in BaF3 cells overexpressing WT and mutant of EGFR.
(§2) More specifically, the cell growth inhibitory ability of the compound of the present invention to the Ba/F3 cell line overexpressing WT and mutant of EGFR was evaluated using CellTiter 96 AQueous Non-Radioactive Cell Proliferation Assay system of Promega, as follows. AQueous Non-Radioactive Cell Proliferation Assay is a method of confirming cell growth inhibitory ability by measuring the degree of color development by reducing MTS (3-(4,5-Dimethylthiazol-2-yl)-5-(3-carboxymethoxyphenyl)-2-(4-sulfophenyl)-2H-tetrazolium) to Formazan by a reductase secreted by mitochondria present in living cells in a cell culture state. The Ba/F3 EGFR WT and Ba/F3 EGFR del19/T790M/C797S (DTC), Ba/F3 EGFR L858R (L), Ba/F3 EGFR L858R/T790M (LT), and Ba/F3 EGFR L858R/T790M/C797S (LTC) mutation cell lines used in the present invention were purchased from the laboratory of Professor Byung-cheol Cho, Yonsei University. All cell lines were cultured in RPMI supplemented with 10% FBS, 1% penicillin-streptomycin and 1 μg/ml of puromycine in a 5% CO2 incubator at 37° C.
(§3) The cell survival inhibitory effect of the compound according to each EGFR mutation was analyzed by the following analysis method.
(§4) BaF3 cells were distributed in a 96-well cell culture plate at the density of 2000˜10000 cells/100 μL/well, and cultured for 24 hours. Thereafter, the concentration of the compound represented by formula 1 provided in one aspect of the present invention was prepared to double the final concentrations of 0.1 nM, 1 nM, 10 nM, 100 nM, 1000 nM and 10000 nM, and the compound was treated to the plate (100 μL/well). The plate was reacted in an incubator at 37° C. for 72 hours. Then, MTS was treated to the plate (20 μL/well) and the plate was incubated at 37° C. for 2 to 4 hours. Finally, after measuring the absorbance at 490 nm using a microplate reader, the relative value compared to 0 nM (% Control) was obtained to confirm the cell growth inhibitory ability of the compound. The measured values were analyzed using Prism program (version 8.0, Graphpad Software, Inc.), and the IC50 value (Inhibition concentration 50), an indicator of the cell growth inhibitory ability of the compound, was calculated.

For assay [2], the target named is Ba/F3 EGFR L858R/T790M/C797S (LTC) (Homo sapiens, UniProt P00533, T790M/C797S/L858R, cells depend on it). Kind of assay: Cell growth inhibitory ability in Ba/F3 cells overexpressing EGFR L858R/T790M/C797S (MTS, CellTiter 96 AQueous). Type of assay: cell-based. Conditions: 72 hours, MTS absorbance at 490 nm, read-out: Ba/F3 EGFR triple mutant L858R/T790M/C797S, IC50. The procedure:
as §1, §2, §3, §4

The structures appear in SMILES notation. Where only a bound is given, the exact number is not on record here.

Chain of Ba/F3 EGFR L858R/T790M (LT) (P00533 whole entry T790M/L858R): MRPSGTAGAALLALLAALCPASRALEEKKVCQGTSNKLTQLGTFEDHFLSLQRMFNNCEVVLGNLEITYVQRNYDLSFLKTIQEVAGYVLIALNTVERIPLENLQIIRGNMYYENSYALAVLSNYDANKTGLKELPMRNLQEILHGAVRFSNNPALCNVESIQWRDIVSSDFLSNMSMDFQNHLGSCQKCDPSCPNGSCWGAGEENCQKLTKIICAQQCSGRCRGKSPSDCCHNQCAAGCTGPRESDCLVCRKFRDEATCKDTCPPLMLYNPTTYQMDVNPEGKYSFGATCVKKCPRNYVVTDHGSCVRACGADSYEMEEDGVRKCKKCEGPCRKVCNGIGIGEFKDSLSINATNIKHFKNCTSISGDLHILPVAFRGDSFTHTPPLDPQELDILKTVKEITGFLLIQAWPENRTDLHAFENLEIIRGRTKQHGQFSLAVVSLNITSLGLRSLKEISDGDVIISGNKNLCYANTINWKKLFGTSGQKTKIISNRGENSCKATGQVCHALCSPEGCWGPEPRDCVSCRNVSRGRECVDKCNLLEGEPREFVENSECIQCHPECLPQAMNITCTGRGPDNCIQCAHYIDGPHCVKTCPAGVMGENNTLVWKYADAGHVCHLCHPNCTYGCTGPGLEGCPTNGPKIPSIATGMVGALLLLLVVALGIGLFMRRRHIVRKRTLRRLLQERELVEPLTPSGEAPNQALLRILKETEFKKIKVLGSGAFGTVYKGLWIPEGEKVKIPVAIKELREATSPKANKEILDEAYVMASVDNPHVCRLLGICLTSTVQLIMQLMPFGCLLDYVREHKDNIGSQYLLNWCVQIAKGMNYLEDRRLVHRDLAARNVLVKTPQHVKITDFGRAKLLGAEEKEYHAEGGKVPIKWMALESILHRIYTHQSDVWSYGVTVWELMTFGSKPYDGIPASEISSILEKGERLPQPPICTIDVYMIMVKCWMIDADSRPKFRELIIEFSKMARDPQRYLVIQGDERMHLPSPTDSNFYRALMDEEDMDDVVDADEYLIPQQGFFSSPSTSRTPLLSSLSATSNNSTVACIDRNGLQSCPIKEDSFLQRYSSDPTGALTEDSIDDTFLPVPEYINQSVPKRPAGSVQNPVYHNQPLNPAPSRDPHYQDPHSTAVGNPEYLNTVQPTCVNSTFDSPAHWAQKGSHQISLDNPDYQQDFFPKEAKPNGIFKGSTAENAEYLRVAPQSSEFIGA
Chain of Ba/F3 EGFR L858R/T790M/C797S (LTC) (P00533 whole entry T790M/C797S/L858R): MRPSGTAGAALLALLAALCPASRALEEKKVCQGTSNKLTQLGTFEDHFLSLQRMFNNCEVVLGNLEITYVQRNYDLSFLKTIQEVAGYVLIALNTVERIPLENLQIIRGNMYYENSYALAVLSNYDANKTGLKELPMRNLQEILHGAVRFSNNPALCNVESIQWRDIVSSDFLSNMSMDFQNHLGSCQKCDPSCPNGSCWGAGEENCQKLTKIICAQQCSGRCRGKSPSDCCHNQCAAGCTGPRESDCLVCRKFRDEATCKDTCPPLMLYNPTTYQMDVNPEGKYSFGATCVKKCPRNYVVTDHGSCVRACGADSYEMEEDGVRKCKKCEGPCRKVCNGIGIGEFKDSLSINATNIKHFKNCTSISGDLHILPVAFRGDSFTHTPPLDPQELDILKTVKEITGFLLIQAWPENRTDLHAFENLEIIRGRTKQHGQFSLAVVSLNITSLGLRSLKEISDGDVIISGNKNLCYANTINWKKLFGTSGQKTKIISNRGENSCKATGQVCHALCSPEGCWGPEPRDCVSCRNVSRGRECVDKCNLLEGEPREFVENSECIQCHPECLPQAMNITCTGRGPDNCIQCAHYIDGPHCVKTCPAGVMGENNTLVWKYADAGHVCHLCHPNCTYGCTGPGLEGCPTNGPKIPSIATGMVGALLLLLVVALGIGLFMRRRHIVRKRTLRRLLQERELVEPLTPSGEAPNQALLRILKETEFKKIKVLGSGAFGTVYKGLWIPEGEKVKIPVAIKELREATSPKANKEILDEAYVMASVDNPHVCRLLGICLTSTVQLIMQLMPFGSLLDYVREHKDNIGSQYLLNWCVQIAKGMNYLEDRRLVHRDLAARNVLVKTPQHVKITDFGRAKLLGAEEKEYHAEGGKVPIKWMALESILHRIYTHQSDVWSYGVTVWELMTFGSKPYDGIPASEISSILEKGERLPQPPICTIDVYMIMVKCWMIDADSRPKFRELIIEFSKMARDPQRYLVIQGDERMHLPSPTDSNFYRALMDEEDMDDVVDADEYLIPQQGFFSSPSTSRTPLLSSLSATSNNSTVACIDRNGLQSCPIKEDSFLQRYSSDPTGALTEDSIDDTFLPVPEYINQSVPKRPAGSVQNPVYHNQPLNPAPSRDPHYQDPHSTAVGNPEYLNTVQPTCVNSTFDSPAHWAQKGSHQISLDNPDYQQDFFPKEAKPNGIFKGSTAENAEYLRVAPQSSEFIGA

For the compound `Cc1cc(C(=O)N[C@@H](c2cc3ccccc3[nH]2)c2cc(F)ccc2O)cc(-c2ccc(N3CCC(N)CC3)cc2)c1` [Example 1, (R)-4′-(4-aminopiperidine-1-yl)-N-((5-fluoro-2-hydroxyphenyl)(1H-indole-2-yl)methyl)-5-methyl-[1,1′-biphenyl]-3-carboxamide], the GI50 in assay [1] and in assay [2] was under 30 nM throughout.

In the case of `CC(C)c1cc(C(=O)N[C@@H](c2cc3ccccc3[nH]2)c2cc(F)ccc2O)cc(-c2ccc(N3CCC(N)CC3)cc2)c1` [Example 2, (R)-4′-(4-aminopiperidine-1-yl)-N-((5-fluoro-2-hydroxyphenyl)(1H-indole-2-yl)methyl)-5-isopropyl-[1,1′-biphenyl]-3-carboxamide], the GI50 in assay [1] and in assay [2] was over 200 nM each time.

In the case of `COc1cc(C(=O)N[C@@H](c2cc3ccccc3[nH]2)c2cc(F)ccc2O)cc(-c2ccc(N3CCC(N)CC3)cc2)c1` [Example 3, (R)-4′-(4-aminopiperidine-1-yl)-N-((5-fluoro-2-hydroxyphenyl)(1H-indole-2-yl)methyl)-5-methoxy-[1,1′-biphenyl]-3-carboxamide], the GI50 in assay [1] and in assay [2] was over 200 nM each time.

With `CC(C)(C)c1cc(C(=O)N[C@@H](c2cc3ccccc3[nH]2)c2cc(F)ccc2O)cc(-c2ccc(N3CCC(N)CC3)cc2)c1` [Example 4, (R)-4′-(4-aminopiperidine-1-yl)-5-(tert-butyl)-N-((5-fluoro-2-hydroxyphenyl)(1H-indole-2-yl)methyl)-[1,1′-biphenyl]-3-carboxamide], the GI50 in assay [1] and in assay [2] was over 200 nM in each case.

With `NC1CCN(c2ccc(-c3cc(F)cc(C(=O)N[C@@H](c4cc5ccccc5[nH]4)c4cc(F)ccc4O)c3)cc2)CC1` [Example 5, (R)-4′-(4-aminopiperidine-1-yl)-5-fluoro-N-((5-fluoro-2-hydroxyphenyl)(1H-indole-2-yl)methyl)-[1,1′-biphenyl]-3-carboxamide], the values for the GI50 in assay [1] and in assay [2] were under 30 nM and over 200 nM, respectively.

In the case of `NC1CCN(c2ccc(-c3cc(C(=O)N[C@@H](c4cc5ccccc5[nH]4)c4cc(F)ccc4O)cc(C(F)(F)F)c3)cc2)CC1` [Example 6, 4′-(4-aminopiperidine-1-yl)-N-((5-fluoro-2-hydroxyphenyl)(1H-indole-2-yl)methyl)-5-(trifluoromethyl)-[1,1′-biphenyl]-3-carboxamide], the GI50 in assay [1] and in assay [2] was over 200 nM throughout.

With `NC1CCN(c2ccc(-c3cc(C(=O)N[C@@H](c4cc5ccccc5[nH]4)c4cc(F)ccc4O)cc([N+](=O)[O-])c3)cc2)CC1` [Example 7, 4′-(4-aminopiperidine-1-yl)-N-((5-fluoro-2-hydroxyphenyl)(1H-indole-2-yl)methyl)-5-nitro-[1,1′-biphenyl]-3-carboxamide], the GI50 in assay [1] and in assay [2] was over 200 nM throughout.

For `CSc1cc(C(=O)N[C@@H](c2cc3ccccc3[nH]2)c2cc(F)ccc2O)cc(-c2ccc(N3CCC(N)CC3)cc2)c1` [Example 8, 4′-(4-aminopiperidine-1-yl)-N-((5-fluoro-2-hydroxyphenyl)(1H-indole-2-yl)methyl)-5-(methylthio)-[1,1′-biphenyl]-3-carboxamide], the GI50 in assay [1] and in assay [2] was over 200 nM in each case.

For the compound `N#Cc1cc(C(=O)N[C@@H](c2cc3ccccc3[nH]2)c2cc(F)ccc2O)cc(-c2ccc(N3CCC(N)CC3)cc2)c1` [Example 9, 4′-(4-aminopiperidine-1-yl)-5-cyano-N-((5-fluoro-2-hydroxyphenyl)(1H-indole-2-yl)methyl)-[1,1′-biphenyl]-3-carboxamide], the GI50 in assay [1] and in assay [2] was over 200 nM in each case.

`Cc1cc(C(=O)N[C@@H](c2cc3ccccc3[nH]2)c2cc(F)ccc2O)cc(-c2ncc(N3C4CCC3CN(C)C4)cn2)c1` [Example 46, N—((R)-(5-fluoro-2-hydroxyphenyl)(1H-indole-2-yl)methyl)-3-methyl-5-(5-(3-methyl-3,8-diazabicyclo[3.2.1]octane-8-yl)pyrimidine-2-yl)benzamide]: the GI50 in assay [2] is under 30 nM.

`Cc1cc(C(=O)N[C@@H](c2cc3ccccc3[nH]2)c2cc(F)ccc2O)cc(-c2ncc(N3CCC(n4cccc4)CC3)cn2)c1` [Example 47, (R)-3-(5-(4-(1H-pyrrole-1-yl)piperidine-1-yl)pyrimidine-2-yl)-N-((5-fluoro-2-hydroxyphenyl)(1H-indole-2-yl)methyl)-5-methylbenzamide]: the GI50 in assay [2] was over 200 nM.

Take `Cc1cc(C(=O)N[C@@H](c2cc3ccccc3[nH]2)c2cc(F)ccc2O)cc(-c2ncc(N3CCC(n4cncn4)CC3)cn2)c1` [Example 48, (R)-3-(5-(4-(1H-1,2,4-triazole-1-yl)piperidine-1-yl)pyrimidine-2-yl)-N-((5-fluoro-2-hydroxyphenyl)(1H-indole-2-yl)methyl)-5-methylbenzamide]: the GI50 in assay [2] lay in the range of 30 to 200 nM.

On to `Cc1cc(C(=O)N[C@@H](c2cc3ccccc3[nH]2)c2cc(F)ccc2O)cc(-c2ncc(N3CCC(O)CC3)cn2)c1` [Example 49, (R)—N-((5-fluoro-2-hydroxyphenyl)(1H-indole-2-yl)methyl)-3-(5-(4-hydroxypiperidine-1-yl)pyrimidine-2-yl)-5-methylbenzamide], for which the GI50 in assay [2] is under 30 nM.

Take `Cc1cc(C(=O)N[C@@H](c2cc3ccccc3[nH]2)c2cc(F)ccc2O)cc(-c2ncc(N3CCC(N4CCCCC4)CC3)cn2)c1` [Example 50, (R)-3-(5-([1,4′-bipiperidine]-1′-yl)pyrimidine-2-yl)-N-((5-fluoro-2-hydroxyphenyl)(1H-indole-2-yl)methyl)-5-methylbenzamide]: the GI50 in assay [2] was under 30 nM.

With `Cc1cc(C(=O)N[C@@H](c2cc3ccccc3[nH]2)c2cc(F)ccc2O)cc(-c2ncc(N3CCC(CN4CCOCC4)CC3)cn2)c1` [Example 51, (R)—N-((5-fluoro-2-hydroxyphenyl)(1H-indole-2-yl)methyl)-3-methyl-5-(5-(4-(morpholinomethyl)piperidine-1-yl)pyrimidine-2-yl)benzamide], the GI50 in assay [2] is over 200 nM.

Consider `Cc1cc(C(=O)N[C@@H](c2cc3ccccc3[nH]2)c2cc(F)ccc2O)cc(-c2ncc(N3CCC(CN4CCCC4)CC3)cn2)c1` [Example 52, (R)—N-((5-fluoro-2-hydroxyphenyl)(1H-indole-2-yl)methyl)-3-methyl-5-(5-(4-(pyrrolidine-1-ylmethyl)piperidine-1-yl)pyrimidine-2-yl)benzamide], for which the GI50 in assay [2] was over 200 nM.

Turning to `Cc1cc(C(=O)N[C@@H](c2cc3ccccc3[nH]2)c2cc(F)ccc2O)cc(-c2ncc(N3CC[C@@H](N(C)C)C3)cn2)c1` [Example 53, 3-[5-[(3R)-3-(dimethylamino)pyrrolidine-1-yl]pyrimidine-2-yl]-N—[(R)-(5-fluoro-2-hydroxy-phenyl)-(1H-indole-2-yl)methyl]-5-methyl-benzamide], the GI50 in assay [2] was under 30 nM.

Take `CNC1CCN(c2cnc(-c3cc(C)cc(C(=O)N[C@@H](c4cc5ccccc5[nH]4)c4cc(F)ccc4O)c3)nc2)CC1` [Example 54, (R)—N-((5-fluoro-2-hydroxyphenyl)(1H-indole-2-yl)methyl)-3-methyl-5-(5-(4-(methylamino)piperidine-1-yl)pyrimidine-2-yl)benzamide]: the GI50 in assay [2] is under 30 nM.

Consider `Cc1cc(C(=O)N[C@@H](c2cc3ccccc3[nH]2)c2cc(F)ccc2O)cc(-c2ncc(N3CCC(C(=O)Nc4ccccc4)CC3)cn2)c1` [Example 55, (R)-1-(2-(3-(((5-fluoro-2-hydroxyphenyl)(1H-indole-2-yl)methyl)carbamoyl)-5-methylphenyl)pyrimidine-5-yl)-N-phenylpiperidine-4-carboxamide], for which the GI50 in assay [2] was over 200 nM.

`COCCOc1ccc(N2CCN(c3cnc(-c4cc(C)cc(C(=O)N[C@@H](c5cc6ccccc6[nH]5)c5cc(F)ccc5O)c4)nc3)CC2)cc1` [Example 56, (R)—N-((5-fluoro-2-hydroxyphenyl)(1H-indole-2-yl)methyl)-3-(5-(4-(4-(2-methoxyethoxy)phenyl)piperazine-1-yl)pyrimidine-2-yl)-5-methylbenzamide]: the GI50 in assay [2] is over 200 nM.
